Results reported in patent US12274729B2, “Formulations and methods for skin care or hyaluronic acid synthesis” (AMILYFE, LLC, priority 2022, dated 2025).

Tests used:
[1] = system: HAS3 mRNA in human-derived epidermal keratinocytes (NHEK); assay: HAS3 mRNA fold change (qPCR) in keratinocytes; assay type: cell-based; settings: 4GAA 4 mM, ROL 10 μM
[2] = system: HAS2 mRNA in human-derived epidermal keratinocytes (NHEK); assay: HAS2 mRNA fold change (qPCR) in keratinocytes; assay type: cell-based; settings: 4GAA 4 mM, ROL 10 μM
[3] = system: barrier marker genes in differentiated normal human epidermal keratinocytes (NHEK); assay: qPCR mRNA expression of barrier marker genes in differentiated NHEK; assay type: cell-based; settings: qPCR data from two donors
Procedure: Treatment time—4 h. […] Data from two independent experiments. Exemplary barrier marker genes examined as follows: Epidermal growth factor (EGF); fibroblast growth factor 2 (FGF2); platelet derived growth factor (PDGF); Carnitine Palmitoyltransferase 2 (CPT2); Transglutaminase 4 (TGM4); Peroxisome Proliferator Activated Receptor Delta (PPARD); TNF Receptor Superfamily Member 10d (TNFRSF10D).
To test the effect of amino acid treatment on epithelial skin barrier, a cellular model of differentiated normal human epidermal keratinocytes (NHEK) was utilized. Commercially available NHEK (ATCC), derived from three diverse healthy donors, were used. Based on a multivariate analysis, three amino acids for the treatment: Ser, Gln and Gly were selected.
Using gene arrays, comparative analyses of two datasets were performed in three diverse donors focusing on consistently differentially [filter criterion of fold change 1.5 (positive or negative) and p-value <0.05)] expressed genes following treatment with various amino acids and combinations thereof. qPCR was used to assess the mRNA expression results. The qPCR results confirmed the array results pertaining to differential expression, thereby validating the panel of genes.
mRNA is extracted, converted to cDNA, and analyzed by qPCR method using custom TaqMan array 384-well plates (Thermo Fisher Scientific) containing 34 of the above-mentioned genes. Four control housekeeping genes are included to normalize the mRNA expression: GAPDH, POLR2A, YWHAZ and PGK1. The array plate will contain 38 genes in total and 10 samples can be analyzed in one run of qPCR.

[4] = Preliminary screens of amino acids
Procedure: In addition to the amino acid combinations described above, several other combinations are tested that include, e.g., Trp and/or Arg to determine if inclusion of these amino acids confers additional dermatological benefits. […] At the outset, the following combinations of amino acids are tested: Ala, Gln, Gly, Ser (combo #1); Ala, Gln, Gly, Ser, Val, Ile (combo #2); Ala, Gln, Gly, Ser, Val; Ala, Gln, Gly, Ser, Ile; Ala, Gln, Gly, Ser, Ile, Val, Trp; Ala, Gln, Gly, Ser, Ile, Val, Arg; and Ala, Gln, Gly, Ser, Ile, Val, Trp, Arg.

[5] = Donor O and Donor R keratinocytes, 24 h in complete medium
[6] = NHEK Donors E, G, O, R, T, 4 h in amino acid-deprived medium

| Structure (SMILES) | effectiveness in comparative analysis of qPCR data with scoring system [3] | further results |
| --- | --- | --- |
| CC1=C(/C=C/C(C)=C/C=C/C(C)=C/CO)C(C)(C)CCC1 [ROL, retinol] |  | HAS3 mRNA gene expression [1, 5]: upregulated; HAS3 gene expression [1, 6]: upregulated; HAS2 mRNA gene expression [2, 5]: upregulated; HAS2 gene expression [2, 6]: upregulated |
| C[C@@H](O)[C@H](N)C(=O)O [Thr, threonine] | least effective |  |
| N[C@@H](CO)C(=O)O [Ser, serine] | most effective |  |
| N[C@@H](Cc1c[nH]c2ccccc12)C(=O)O [Trp, tryptophan] |  | effect in preliminary screens [4]: positive effects |
| N[C@@H](CS)C(=O)O [Cys, cysteine] | least effective |  |
| N[C@@H](CC(=O)O)C(=O)O [Asp, aspartic acid] | least effective |  |
| NC(=O)CC[C@H](N)C(=O)O [Gln, glutamine] | most effective |  |
| C[C@H](N)C(=O)O [Ala, alanine] | most effective |  |
| O=C(O)[C@@H]1CCCN1 [Pro, proline] | least effective |  |
| N=C(N)NCCC[C@H](N)C(=O)O [Arg, arginine] |  | effect in preliminary screens [4]: positive effects |
| N[C@@H](Cc1ccc(O)cc1)C(=O)O [Tyr, tyrosine] | least effective |  |
| NCC(=O)O [Gly, glycine] | most effective |  |
